Target: T1, hAhR (Homo sapiens, UniProt P35869)
T1 construct: Stably integrated DRE-luciferase cell lines were generated by transducing the both cell lines with Cignal XRE luciferase reporter (Qiagen) lentiviral particles; endogenous in cells
T1 sequence (P35869 11-848): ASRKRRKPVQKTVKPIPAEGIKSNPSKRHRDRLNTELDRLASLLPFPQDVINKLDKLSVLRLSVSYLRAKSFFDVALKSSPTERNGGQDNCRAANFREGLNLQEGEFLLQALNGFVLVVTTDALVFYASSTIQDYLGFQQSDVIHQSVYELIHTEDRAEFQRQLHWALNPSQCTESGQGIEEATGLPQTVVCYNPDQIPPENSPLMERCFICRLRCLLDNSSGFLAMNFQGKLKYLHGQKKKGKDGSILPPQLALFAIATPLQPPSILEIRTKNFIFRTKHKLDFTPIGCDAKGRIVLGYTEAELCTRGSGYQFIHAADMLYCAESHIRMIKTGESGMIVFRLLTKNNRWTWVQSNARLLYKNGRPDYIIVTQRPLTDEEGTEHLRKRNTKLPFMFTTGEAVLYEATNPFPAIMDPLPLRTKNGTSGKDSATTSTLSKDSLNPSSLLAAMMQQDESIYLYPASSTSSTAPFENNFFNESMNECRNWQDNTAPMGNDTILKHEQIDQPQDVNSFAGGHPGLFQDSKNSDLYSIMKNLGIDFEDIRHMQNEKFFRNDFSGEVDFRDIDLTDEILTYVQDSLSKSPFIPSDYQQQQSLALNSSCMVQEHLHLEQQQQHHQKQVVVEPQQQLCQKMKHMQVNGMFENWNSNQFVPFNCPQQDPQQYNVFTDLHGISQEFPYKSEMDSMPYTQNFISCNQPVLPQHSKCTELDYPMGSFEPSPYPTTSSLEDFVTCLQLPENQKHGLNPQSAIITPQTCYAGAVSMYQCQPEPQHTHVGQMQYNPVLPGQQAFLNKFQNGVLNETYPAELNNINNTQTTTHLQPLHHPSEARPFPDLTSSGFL
Test: AhR DRE-luciferase reporter transcriptional assay, antagonist mode (TCDD-induced)
Format: cell-based
Details: HEPG2 DRE-Luc cells, 3 nM TCDD, 24 hour incubation, relative IC50
Summary of the method: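 HepG2 cells carrying a stably integrated DRE-luciferase reporter, in OptiMEM with 0.5% FBS; semi-log compound doses added with 3 nM TCDD, 24 h incubation, firefly luciferase read-out. Percent maximal activity normalised between vehicle ± TCDD; relative IC50 taken as half-reduction between curve plateaus.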

IC50 | Compound
1000 to 10000 nM | Cc1cc(-c2ccc3cc(C4CC4)ccc3n2)ccc1N(C)C(=O)c1ccnn1C [Example 069, N-(4-(6-cyclopropylquinolin-2-yl)-2-methylphenyl)-N,1-dimethyl-1H-pyrazole-5-carboxamide]
500 to 1000 nM | Cc1cc(-c2ccc3cc(F)cc(C4CC4)c3n2)ccc1NC(=O)c1ccnn1C [Example 053, N-(4-(8-cyclopropyl-6-fluoroquinolin-2-yl)-2-methylphenyl)-1-methyl-1H-pyrazole-5-carboxamide]
< 200 nM | Cc1cc(-c2ccc3cc(C(F)(F)F)ccc3n2)cc(F)c1NC(=O)c1ccnn1C [Example 008, N-(2-fluoro-6-methyl-4-(6-(trifluoromethyl)quinolin-2-yl)phenyl)-1-methyl-1H-pyrazole-5-carboxamide]
1000 to 10000 nM | Cc1cc(-c2ncc3nc(C(F)(F)F)cc(C)c3n2)ccc1N(C)C(=O)c1cc(C(N)=O)nn1CC(N)=O [Example 196, 1-(2-amino-2-oxoethyl)-N5-methyl-N5-(2-methyl-4-(8-methyl-6-(trifluoromethyl)pyrido[3,2-d]pyrimidin-2-yl)phenyl)-1H-pyrazole-3,5-dicarboxamide]
500 to 1000 nM | Cc1cc(-c2ncc3nc(C(F)(F)F)ccc3n2)ccc1NC(=O)c1ccnn1CC(C)O (stereo not shown) [Example 193, 1-(2-hydroxypropyl)-N-(2-methyl-4-(6-(trifluoromethyl)pyrido[3,2-d]pyrimidin-2-yl)phenyl)-1H-pyrazole-5-carboxamide]
< 200 nM | Cc1cc(-c2ncc3cc(C(F)(F)F)ccc3n2)ccc1N(C)C(=O)c1ccnc(C(N)=O)c1 [Example 152, N4-methyl-N4-(2-methyl-4-(6-(trifluoromethyl)quinazolin-2-yl)phenyl)pyridine-2,4-dicarboxamide]
1000 to 10000 nM | Cc1cc(-c2ncc3cc(C(F)(F)F)ccc3n2)ccc1N(C)C(=O)c1cnn[nH]1 [Example 146, N-methyl-N-(2-methyl-4-(6-(trifluoromethyl)quinazolin-2-yl)phenyl)-1H-1,2,3-triazole-5-carboxamide]
< 200 nM | Cc1cc(-c2ccc3cc(C#N)ccc3n2)ccc1NC(=O)c1ccnn1C [Example 073, N-(4-(6-cyanoquinolin-2-yl)-2-methylphenyl)-1-methyl-1H-pyrazole-5-carboxamide]
500 to 1000 nM | Cc1cc(-c2ccc3cc(F)ccc3n2)ccc1NC(=O)c1ccncc1 [Example 028, N-(4-(6-fluoroquinolin-2-yl)-2-methylphenyl)isonicotinamide]
500 to 1000 nM | Cc1cc(-c2ccc3cc(F)ccc3n2)ccc1NC(=O)c1cocn1 [Example 036, N-(4-(6-fluoroquinolin-2-yl)-2-methylphenyl)oxazole-4-carboxamide]
200 to 500 nM | Cc1cc(-c2ccc3cc(F)cc(Cl)c3n2)ccc1NC(=O)c1ccnn1C [Example 049, N-(4-(8-chloro-6-fluoroquinolin-2-yl)-2-methylphenyl)-1-methyl-1H-pyrazole-5-carboxamide]
1000 to 10000 nM | Cc1cc(-c2ccc3cc(C4CC4)ccc3n2)ccc1NC(=O)c1ccnn1C [Example 068, N-(4-(6-cyclopropylquinolin-2-yl)-2-methylphenyl)-1-methyl-1H-pyrazole-5-carboxamide]
500 to 1000 nM | Cc1cc(-c2ccc3cc(F)ccc3n2)ccc1NC(=O)c1cncn1C [Example 034, N-(4-(6-fluoroquinolin-2-yl)-2-methylphenyl)-1-methyl-1H-imidazole-5-carboxamide]
1000 to 10000 nM | Cc1cc(-c2ccc3c(ccn3CC(F)(F)F)c2)ccc1NC(=O)c1ccnn1C [Example 088, 1-methyl-N-(2-methyl-4-(1-(2,2,2-trifluoroethyl)-1H-indol-5-yl)phenyl)-1H-pyrazole-5-carboxamide]
< 200 nM | Cc1cc(-c2ncc3nc(C(F)(F)F)cc(C)c3n2)ccc1NC(=O)c1ccnn1C [Example 147, 1-methyl-N-(2-methyl-4-(8-methyl-6-(trifluoromethyl)pyrido[3,2-d]pyrimidin-2-yl)phenyl)-1H-pyrazole-5-carboxamide]
200 to 500 nM | CC(=O)Nc1ccc(-c2ccc3cc(F)ccc3n2)cc1C [Example 040, N-(4-(6-fluoroquinolin-2-yl)-2-methylphenyl)acetamide]
< 200 nM | Cc1cc(-c2ncc3cc(C(F)(F)F)cc(C)c3n2)ccc1N(C)C(=O)c1ccnn1C [Example 111, N,1-dimethyl-N-(2-methyl-4-(8-methyl-6-(trifluoromethyl)quinazolin-2-yl)phenyl)-1H-pyrazole-5-carboxamide]
< 200 nM | Cc1cc(-c2ncc3cc(F)ccc3n2)ccc1NC(=O)c1ccnn1C [Example 107, N-(4-(6-fluoroquinazolin-2-yl)-2-methylphenyl)-1-methyl-1H-pyrazole-5-carboxamide]
1000 to 10000 nM | Cc1cc(-c2ccc3cc(F)ccc3n2)ccc1NC(=O)c1cncnc1 [Example 030, N-(4-(6-fluoroquinolin-2-yl)-2-methylphenyl)pyrimidine-5-carboxamide]
< 200 nM | Cc1cc(-c2ncc3nc(C(F)(F)F)cc(C)c3n2)ccc1NC(=O)c1ccnn1CCO [Example 172, 1-(2-hydroxyethyl)-N-[2-methyl-4-[8-methyl-6-(trifluoromethyl)pyrido-[3,2-d]pyrimidin-2-yl]phenyl]-1H-pyrazole-5-carboxamide]
< 200 nM | Cc1cc(-c2ncc3cc(C(F)(F)F)cc(C)c3n2)ccc1NC(=O)c1ccnn1C [Example 110, 1-methyl-N-(2-methyl-4-(8-methyl-6-(trifluoromethyl)quinazolin-2-yl)phenyl)-1H-pyrazole-5-carboxamide]
500 to 1000 nM | Cc1cc(-c2ncc3cc(C(F)(F)F)ccc3n2)ccc1NC(=O)c1ncncc1C [Example 123, 5-methyl-N-(2-methyl-4-(6-(trifluoromethyl)quinazolin-2-yl)phenyl)pyrimidine-4-carboxamide]
1000 to 10000 nM | Cn1nccc1C(=O)Nc1ccc(-c2ccc3cc(F)ccc3n2)cc1C(F)(F)F [Example 048, N-(4-(6-fluoroquinolin-2-yl)-2-(trifluoromethyl)phenyl)-1-methyl-1H-pyrazole-5-carboxamide]
< 200 nM | Cc1cc(C(=O)Nc2ccc(-c3ncc4cc(C(F)(F)F)ccc4n3)cc2C)ccn1 [Example 119, 2-methyl-N-(2-methyl-4-(6-(trifluoromethyl)quinazolin-2-yl)phenyl)isonicotinamide]
< 200 nM | Cc1cnccc1C(=O)N(C)c1ccc(-c2ncc3cc(C(F)(F)F)ccc3n2)cc1C [Example 122, N,3-dimethyl-N-(2-methyl-4-(6-(trifluoromethyl)quinazolin-2-yl)phenyl)isonicotinamide]
500 to 1000 nM | Cc1cc(-c2ccc3cc(F)ccc3n2)ccc1NC(=O)c1cnccn1 [Example 032, N-(4-(6-fluoroquinolin-2-yl)-2-methylphenyl)pyrazine-2-carboxamide]
200 to 500 nM | Cc1cc(-c2ccc3ccc(C(F)(F)F)cc3n2)ccc1NC(=O)c1ccnn1C [Example 078, 1-methyl-N-(2-methyl-4-(7-(trifluoromethyl)quinolin-2-yl)phenyl)-1H-pyrazole-5-carboxamide]
< 200 nM | Cc1cc(-c2ccc3cncc(Cl)c3n2)ccc1NC(=O)c1ccnn1C [Example 104, N-(4-(8-chloro-1,6-naphthyridin-2-yl)-2-methylphenyl)-1-methyl-1H-pyrazole-5-carboxamide]

Source: patent US20220340875A1, “METHODS OF CULTURING AND/OR EXPANDING STEM CELLS AND/OR LINEAGE COMMITTED PROGENITOR CELLS USING AMIDO COMPOUNDS” (IDEAYA BIOSCIENCES, INC., priority 2018, published 2022)
